From US12552824B2, “C-mannoside compounds useful for the treatment of urinary tract infections” (GLAXOSMITHKLINE INTELLECTUAL PROPERTY DEVELOPMENT LIMITED, priority 2018, dated 2026)

Tests used:
[1] = Rat pharmacokinetics: IV infusion 1 mg/kg, then PO 5 mg/kg; blood and urine by LC-MS/MS; type: in vivo, Male Wistar Han rats; settings: for % F: oral bioavailability, ratio of dose-normalised AUC PO (5 mg/kg) and IV infusion (1 mg/kg); for Ue % po: percentage of oral dose (5 mg/kg) eliminated unchanged in urine
Source text: General Assays for Obtaining AUC Oral h*μm, % F, and Ue % PO Values
Male Wistar Han rats were purchased from Vital River Laboratory Animal Technology Co. Ltd (Beijing, China). The animals were approx. 6-8 weeks old with body weights of 200-300 g on the dosing date. The animals were housed in a 12-hour light/12-hour dark cycle environment and had free access to food and water. All animals were fed prior to dosing. Studies were approved by the Pharmaron Institutional Animal Care and Use Committee (IACUC).
Test article was administered as an intravenous infusion for 1 hour (1 mg/kg) at 5 mL/kg/h. After 48 h, animals received a single oral dose (5 mg/kg, free form) at a dose volume of 10 mL/kg, respectively. Blood samples were collected at various time points after IV infusion and PO administrations. Urine samples were collected at various time points after IV infusion and PO administrations.
Test article was dissolved in DMSO with vortexing and sonification to obtain a stock solution. An aliquot of the stock solution was mixed with 10% HP-β-CD in saline with vortexing to obtain a solution with concentration at 0.2 mg/mL of test article.
Test article was added into 1% Methyl Cellulose with vortexing and sonication to obtain a homogeneous suspension with concentration at 0.5 mg/mL of test article.
For IV infusion (1 mg/kg) administration, blood samples were collected from each animal at 0, 0.25, 0.5, 0.75, 1, 1.08, 1.25, 1.5, 1.75, 2, 3, 5, 8, 12, 24 hour post-dose.
For PO (5 mg/kg) administration, blood samples were collected from each animal at 0, 0.25, 0.5, 1, 1.5, 2, 3, 4, 6, 8, 12, 24 hour post-dose.
Blood samples (50 μL) were collected from each animal via jugular vein. These blood samples were placed into tubes containing K2EDTA. Whole blood was mixed with same volume of water and inverted several times. The blood samples were stored at −75±15° C. until analysis.
For IV infusion (1 mg/kg) administration, urine samples were collected from each animal at 0-4, 4-8, 8-12, 12-24 hour post-dose.
For PO (5 mg/kg) administration, urine samples were collected from each animal at 0-4, 4-8, 8-12, 12-24 hour post-dose.
Urine samples were collected continuously into containers maintained over dry ice at the intervals outlined below and stored at −80° C. prior to analysis.
55 μL of standards, 55 μL of QC samples or 55 μL of unknown samples (50 μL of blood or urine with 5 μL 50% acetonitrile) were mixed to 200 μL of acetonitrile containing IS (dexamethasone) to precipitate proteins. Then the samples were vortexed for 30 sec. After centrifugation at 4° C., 4700 rpm for 30 min, and 5 μL of the supernatant was injected into the LC-MS/MS system for quantitative analysis.
Test article blood and urine concentrations for each animal following IV infusion at 1 mg/kg and PO at 5 mg/kg were used to calculate pharmacokinetic parameters by employing a non-compartmental analysis (Phoenix™ WinNonlin® 7.0). The linear trapezoidal algorithm was used for AUC calculation.

FimH = target: T1, FimH (Escherichia coli, UniProt Q1R2J4); type: cell-based; settings: concentration reducing bacterial agglutination of guinea pig red blood cells by greater than 90%; UTI89 bacteria;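 also: concentration in nM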
T1 construct: endogenous in cells; host or cells: E. coli UTI89 whole bacteria, agglutinating guinea pig red blood cells
In short: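 Hemagglutination inhibition using uropathogenic E. coli UTI89 and guinea pig red blood cells.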

| SMILES | % F [1] | Ue % po [1] | HAI titer EC > 90 (FimH) |
| --- | --- | --- | --- |
| CCc1c(F)cc(-c2ccc([C@@H](O)[C@H]3O[C@H](CO)[C@@H](O)[C@H](O)[C@@H]3O)c(C)c2)cc1F [Example 94] | “++” (10 <= x <= 30%) | “+” (<0.5%) | “++++” (<50 “++++”) |
| Cc1cc(-c2cc(F)c(OC(F)(F)F)c(F)c2)ccc1[C@@H](O)[C@H]1O[C@H](CO)[C@@H](O)[C@H](O)[C@@H]1O [Example 101] | “++” (10 <= x <= 30%) | “+” (<0.5%) | “++++” (<50 “++++”) |
